The values that follow come from patent US9328138B2 (priority 2011, dated 2016).

Structures are written as SMILES. Counter-ions that a name gives are not always drawn.

The target in assay [1] is T1, HCV genotype 1b (BK) NS3 modified enzyme with a R155K mutation (Hepatitis C virus genotype 1b, UniProt P26663, R1181K).
T1 construct: HCV genotype 1b (BK) NS3 modified enzyme
Nature of the assay: HCV NS3 protease time-resolved fluorescence (TRF) assay, genotype 1b R155K. As to conditions: Ki 1b R155K. It is filed as biochemical. As for the experimental part: (§1) The HCV NS3 protease inhibitory activity of the present compounds may be tested using assays known in the art. One such assay is HCV NS3 protease time-resolved fluorescence (TRF) assay as described below and in International Patent Application Publication No. WO2006/102087. Other examples of such assays are described in e.g., International Patent Application Publication No. WO2005/046712. The assay is performed in a final volume of 100 μl in assay buffer containing 50 mM HEPES, pH 7.5, 150 mM NaCl, 15% glycerol, 0.15% Triton X-100, 10 mM DTT, and 0.1% PEG 8000. NS3 protease is pre-incubated with various concentrations of inhibitors in DMSO for 30 minutes. The reaction is initiated by adding the TRF peptide substrate (final concentration 100 nM). NS3 mediated hydrolysis of the substrate is quenched after 1 hour at room temperature with 100 μl of 500 mM MES, pH 5.5. Product fluorescence is detected using either a VICTOR V2 or FUSION fluorophotometer (Perkin Elmer Life and Analytical Sciences) with excitation at 340 nm and emission at 615 nm with a 400 μs delay. Testing concentrations of different enzyme forms are selected to result in a signal to background ratio (S/B) of 10-30. IC50 values are derived using a standard four-parameter fit to the data. K; values are derived from IC50 values using the following formula, IC50=Ki(1+[S]/Km), Eqn (1), where [S] is the concentration of substrate peptide in the reaction and KM is the Michaelis constant. See Gallinari et al., 1999, Biochem. 38:5620-32; Gallinari et al., 1998, J. Virol. 72:6758-69; Taliani et al., 1996, Anal. Biochem. 240:60-67.
(§2) The HCV NS3 protease inhibitory activity was measured using the protease time-resolved fluorescence (TRF) assay as described below and in International Patent Application Publication No. WO 2006/102087. The assay was performed with HCV genotype 1b (BK) NS3 modified enzyme with a R155K mutation and genotype 3a (3A-1).
(§3) The assay was performed in a final volume of 50 μl in assay buffer containing 50 mM HEPES, pH 7.5, 150 mM NaCl, 15% glycerol, 0.15% TRITON X-100, 10 mM DTT, and 0.1% PEG 8000. NS3 and NS4A protease is pre-incubated with various concentrations of inhibitors in DMSO for 10 minutes. The reaction was initiated by adding the TRF peptide substrate (final concentration 25 nM) and NS3 mediated hydrolysis of the substrate proceeds for 6 hours at room temperature. Product fluorescence is detected using an Envision plate reader (Perkin Elmer) with excitation at 340 nm and emission at 615 nm with a 400 μs delay. Testing concentrations of the enzymes were selected to result in a signal to background ratio (S/B) of 5-20. IC50 values are derived using a standard four-parameter fit to the data.
(§4) NS3 and NS4A protease is pre-incubated with various concentrations of inhibitors in DMSO for 30 minutes. The reaction is initiated by adding the TRF peptide substrate (final concentration 100 nM). NS3 mediated hydrolysis of the substrate is quenched after 1 hour at room temperature with 100 μl of 500 mM MES, pH 5.5. Product fluorescence is detected using either a VICTOR V2 or FUSION fluorophotometer (Perkin Elmer Life and Analytical Sciences) with excitation at 340 nm and emission at 615 nm with a 400 μs delay. Testing concentrations of the enzymes are selected to result in a signal to background ratio (S/B) of 8-30. IC50 values are derived using a standard four-parameter fit to the data. Ki values are derived from IC50 values using the following formula, IC50=Ki(1+[S][…]), Eqn (1), where [S] is the concentration of substrate peptide in the reaction and KM is the Michaelis constant. See Gallinari et al., 1999, Biochem. 38:5620-32; Gallinari et al., 1998, J. Virol. 72:6758-69; and Taliani et al., 1996, Anal. Biochem. 240:60-67. ND means not determined.

Assay [2] concerns the target HCV NS3 protease genotype 3a (3A-1) (Hepatitis C virus genotype 3a, UniProt Q81258). Nature of the assay: HCV NS3 protease time-resolved fluorescence (TRF) assay, genotype 3a. In kind it is biochemical. As to conditions: Ki 3a. As for the experimental part: as §1, §2, §3, §4
The mark [3] stands for this setting: genotype 1b (BK) NS3 R155K, single value.
Setting [4] is: first of two values printed in the cell (not explained).
[5] abbreviates: second of two values printed in the cell (not explained).

Regarding `C=C[C@@H]1C[C@]1(NC(=O)[C@@H]1C[C@@H]2CN1C(=O)[C@H](C1CCCC1)NC(=O)O[C@@H]1CCC[C@H]1CC/C=C/Cc1c(nc3ccccc3c1OP(=O)(OCC)OCC)O2)C(=O)NS(=O)(=O)C1CC1` [Example 38, (3aR,7S,10S,12R,21E,24aS)-7-cyclopentyl-10-({(1R,2S)-1-[(cyclopropylsulfonyl)carbamoyl]-2-ethenylcyclopropyl}carbamoyl)-5,8-dioxo-1,2,3,3a,5,6,7,8,11,12,20,23,24,24a-tetradecahydro-10H-9,12-methanocyclopenta[18,19][1,10,3,6]dioxadiazacyclononadecino[11,12-b]quinolin-19-yl diethyl phosphate], the results for the Ki in assay [1] (setting [3]) and in assay [2] were 1.2 nM and 94 nM, respectively.

Consider `C=C[C@@H]1C[C@]1(NC(=O)[C@@H]1C[C@@H]2CN1C(=O)[C@H](C1CCCCC1)NC(=O)O[C@@H]1C[C@H]1CCCCCc1c(nc3ccccc3c1OC1CCN(CCF)CC1)O2)C(=O)NS(=O)(=O)C1(C)CC1` [Example 272, 4-{[(1aR,5S,8S,10R,22aR)-5-cyclohexyl-8-{[(1R,2S)-2-ethenyl-1-{[(1-methylcyclopropyl)sulfonyl]carbamoyl}cyclopropyl]carbamoyl}-3,6-dioxo-1,1a,3,4,5,6,9,10,18,19,20,21,22,22a-tetradecahydro-8H-7,10-methanocyclopropa[18,19][1,10,3,6]dioxadiazacyclononadecino[11,12-b]quinolin-17-yl]oxy}-1-(2-fluoroethyl)piperidinium formate], for which the Ki (commonly the dissociation constant of the complex between target and ligand, obtained from inhibition or displacement) was found to be 0.015 nM in assay [1] (setting [4]), 0.128 nM in assay [1] (setting [5]) and 2.12 nM in assay [2].

With `C=C[C@@H]1C[C@]1(NC(=O)[C@@H]1C[C@@H]2CN1C(=O)[C@H](C(C)(C)C)NC(=O)O[C@@H]1C[C@H]1CCCCCc1c(nc3ccccc3c1OCC1CN(C)C1)O2)C(=O)NS(=O)(=O)C1(C)CC1` [Example 224, (1aR,5S,8S,10R,22aR)-5-tert-butyl-N-[(1R,2S)-2-ethenyl-1-{[(1-methylcyclopropyl)sulfonyl]carbamoyl}cyclopropyl]-17-[(1-methylazetidin-3-yl)methoxy]-3,6-dioxo-1,1a,3,4,5,6,9,10,18,19,20,21,22,22a-tetradecahydro-8H-7,10-methanocyclopropa[18,19][1,10,3,6]dioxadiazacyclononadecino[11,12-b]quinoline-8-carboxamide], the Ki in assay [1] (setting [3]) was determined as 0.061 nM; in assay [2], 0.67 nM.

Consider `C=C[C@@H]1C[C@]1(NC(=O)[C@@H]1C[C@@H]2CN1C(=O)[C@H](C1(C)CCCCC1)NC(=O)O[C@@H]1C[C@H]1CCCCCc1c(nc3ccccc3c1OCCCN1CCCOCC1)O2)C(=O)NS(=O)(=O)C1(C)CC1` [Example 270, (1aR,5S,8S,10R,22aR)—N-[(1R,2S)-2-ethenyl-1-{[(1-methylcyclopropyl)sulfonyl]carbamoyl}cyclopropyl]-5-(1-methylcyclohexyl)-17-[3-(1,4-oxazepan-4-yl)propoxy]-3,6-dioxo-1,1a,3,4,5,6,9,10,18,19,20,21,22,22a-tetradecahydro-8H-7,10-methanocyclopropa[18,19][1,10,3,6]dioxadiazacyclononadecino[11,12-b]quinoline-8-carboxamide], for which the Ki in assay [1] (setting [4]) came out at 0.021 nM; in assay [1] (setting [5]), 0.18 nM; in assay [2], 1.4 nM.

For `C=C[C@@H]1C[C@]1(NC(=O)[C@@H]1C[C@@H]2CN1C(=O)[C@H](C1CCCC1)NC(=O)O[C@@H]1CCC[C@H]1CC/C=C/Cc1c(nc3ccccc3c1OC(C)=O)O2)C(=O)NS(=O)(=O)C1CC1` [Example 39, (3aR,7S,10S,12R,21E,24aS)-7-cyclopentyl-10-({(1R,2S)-1-[(cyclopropylsulfonyl)carbamoyl]-2-ethenylcyclopropyl}carbamoyl)-5,8-dioxo-1,2,3,3a,5,6,7,8,11,12,20,23,24,24a-tetradecahydro-10H-9,12-methanocyclopenta[18,19][1,10,3,6]dioxadiazacyclononadecino[11,12-b]quinolin-19-yl acetate], the Ki in assay [1] (setting [3]) turned out to be 0.13 nM; in assay [2], 3.5 nM.

Take `C=C[C@@H]1C[C@]1(NC(=O)[C@@H]1C[C@@H]2CN1C(=O)[C@H](C(C)(C)C)NC(=O)O[C@@H]1CCC[C@H]1CCCCCc1c(nc3ccccc3c1OCCN1CCOCC1)O2)C(=O)NS(=O)(=O)N1CCC1` [Example 107, (3aR,7S,10S,12R,24aR)-N-{(1R,2S)-1-[(azetidin-1-ylsulfonyl)carbamoyl]-2-ethenylcyclopropyl}-7-tert-butyl-19-[2-(morpholin-4-yl)ethoxy]-5,8-dioxo-1,2,3,3a,5,6,7,8,11,12,20,21,22,23,24,24a-hexadecahydro-10H-9,12-methanycyclopenta [18,19][1,10,3,6]dioxadiazacyclo nonadecino[11,12-b]quinoline-10-carboxamide]: the values for the Ki in assay [1] (setting [3]) and in assay [2] were 0.74 nM and 23 nM, respectively.

As to `C=C[C@@H]1C[C@]1(NC(=O)[C@@H]1C[C@@H]2CN1C(=O)[C@H](C(C)(C)C)NC(=O)O[C@@H]1C[C@H]1CCCCCc1c(nc3ccccc3c1OCC1CCCN(CC)C1)O2)C(=O)NS(=O)(=O)C1(C)CC1` (stereo partly drawn) [Example 139, (1aR,5S,8S,10R,22aR)-5-tert-butyl-N-[(1R,2S)-2-ethenyl-1-{[(1-methylcyclopropyl)sulfonyl]carbamoyl}cyclopropyl]-17-[(1-ethylpiperidin-3-yl)methoxy]-3,6-dioxo-1,1a,3,4,5,6,9,10,18,19, 20,21,22,22a-tetradeca hydro-8H-7,10-methanocyclopropa[18,19] [1,10,3,6]dioxadiazacyclo nonadecino[11,12-b]quinoline-8-carboxamide], the Ki in assay [1] (setting [3]) is 0.1 nM; in assay [2], 0.38 nM.

Take `C=C[C@@H]1C[C@]1(NC(=O)[C@@H]1C[C@@H]2CN1C(=O)[C@H](C1CCCC1)NC(=O)O[C@@H]1CCC[C@H]1CC/C=C/Cc1c(nc3ccccc3c1OCCC1OCCO1)O2)C(=O)NS(=O)(=O)C1(C)CC1` [Example 50, (3aR,7S,10S,12R,21E,24aS)-7-cyclopentyl-19-[2-(1,3-dioxolan-2-yl)ethoxy]-N-[(1R,2S)-2-ethenyl-1-{[(1-methylcyclopropyl)sulfonyl]carbamoyl}cyclopropyl]-5,8-dioxo-1,2,3,3a, 5,6,7,8,11,12,20,23,24,24a-tetradeca hydro-10H-9,12-methanocyclopenta[18,19][1,10,3,6]dioxadiazacyclononadecino[11,12-b] quinoline-10-carboxamide]: the Ki in assay [1] (setting [3]) stood at 0.23 nM; in assay [2], 6.6 nM.

For the compound `C=C[C@@H]1C[C@]1(NC(=O)[C@@H]1C[C@@H]2CN1C(=O)[C@H](C(C)(C)C)NC(=O)O[C@@H]1C[C@H]1CCCCCc1c(nc3ccccc3c1OCCCN1CCOCC1)O2)C(=O)NS(=O)(=O)C1(C)CC1` [Example 116, (1aR,5S,8S,10R,22aR)-5-tert-butyl-N-[(1R,2S)-2-ethenyl-1-{[(1-methylcyclopropyl)sulfonyl]carbamoyl}cyclopropyl]-17-[3-(morpholin-4-yl)propoxy]-3,6-dioxo-1,1a,3,4,5,6,9,10,18,19,20,21, 22,22a-tetradeca hydro-8H-7,10-methanocyclopropa [18,19][1,10,3,6]dioxadiazacyclo nonadecino[11,12-b]quinoline-8-carboxamide], the results for the Ki in assay [1] (setting [3]) and in assay [2] were 0.17 nM and 1.6 nM, respectively.
